# Data taken from patent US10376561B1, “Fasciola hepatica fatty acid binding protein a novel anti-inflammatory molecule” (priority 2015, dated 2019).
# Columns and labels:
# [1] = system: TLR4; test: NF-κB activation in TLR4-transfected HEK cells (SEAP, A655); type: cell-based, human; conditions: PMB 100 μM; LPS 5 μg/ml
# Protocol: To investigate the mechanism of interaction between Fh12 and TLR4 we used Human Embryonic Kidney 293 cells (HEK293, InvivoGen). These cells (HEK293-TLR4) are co-transfected with genes encoding cluster differentiation antigen-14 (CD14), myeloid differentiation protein-2 (MD2), toll-like receptor-4 (TLR4) co-receptor, and a SEAP reporter gene (HEK293-TLR4). Cells were maintained in DMEM supplemented with 4.5 g/L glucose, 10% fetal bovine serum (FBS), 50 U/ml penicillin, 50 μg/ml streptomycin, 100 μg/ml Normocin™ and 2 mM L-glutamine. For all experiments a cell suspension was prepared using HEK-Blue™ Detection medium at 14×10^4 cells/ml. For stimulation experiments, cells were seeded at 2.52×10^4 cells/well in 96-well flat-bottom plates and treated with Fh12 (from 0.62 to 10 μg/ml) or LPS (5 μg/ml), and incubated at 37° C., 5% CO2 for 24 h. In the inhibition experiments, cells were cultured with Fh12 (0.6 to 10 μg/ml) 30 min prior LPS (5 μg/ml) stimulation. […] All readings were done at 655 nm after 24 h of LPS-stimulation. […] The percent of reduction (R %) of the absorbance values was calculated by the formula R (%)=100−[(A−C)×100)/(B−C)], where A is the mean A655 of three replicates obtained when cells were stimulated with Fh12, and B is the mean A665 value obtained when cells were exposed to LPS, and C is the mean A655 of three replicates obtained when cells were stimulated with PBS. […]
# [2] = target: T1, human LBP (Homo sapiens, UniProt P18428); test: LPS-binding protein (LBP)/LPS interaction assay (Endoblock LBP ELISA); conditions: Polymyxin-B 100 μM
# T1 construct: purchased Hycult Biotech
# T1 sequence (P18428 26-481): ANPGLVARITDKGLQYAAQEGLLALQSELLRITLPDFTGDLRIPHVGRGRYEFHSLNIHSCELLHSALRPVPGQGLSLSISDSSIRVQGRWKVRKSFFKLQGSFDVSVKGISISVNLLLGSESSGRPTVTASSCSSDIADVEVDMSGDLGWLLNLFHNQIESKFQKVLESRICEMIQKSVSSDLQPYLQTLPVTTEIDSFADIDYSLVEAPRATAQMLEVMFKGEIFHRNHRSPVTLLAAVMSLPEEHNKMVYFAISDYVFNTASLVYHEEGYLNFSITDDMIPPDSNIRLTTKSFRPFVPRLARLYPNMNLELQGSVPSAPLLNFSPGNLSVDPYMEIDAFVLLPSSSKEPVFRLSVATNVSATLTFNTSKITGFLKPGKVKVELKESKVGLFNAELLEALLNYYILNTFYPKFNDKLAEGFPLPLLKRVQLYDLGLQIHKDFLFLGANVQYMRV
# Protocol: The Endoblock LBP ELISA test kit (Hycult Biotech, PA, USA) was used according to the manufacturer's instructions to investigate whether Fh12 disrupts the interaction between LPS and LBP. Briefly, binding of biotinylated LPS to pre-captured human LBP was assessed using streptavidin peroxidase, followed by addition of tetramethylbenzidine. Fh12 (0.05-10 μg/ml) was pre-incubated for 30 min with biotinylated-LPS and added to wells pre-coated with anti-LBP+LBP. PMB (0.2-100 μM), which competes with LBP for binding to LPS, was used as a control for inhibition by pre-incubation with biotinylated-LPS.
# To investigate the mechanism through which Fh12 specifically blocks the interaction between LPS and TLR4, we firstly assessed whether Fh12 exposure alters either the interaction of LPS with […] (LBP), or the expression of any TLR4 complex component. To assess whether Fh12 prevents binding of LPS to LBP, we used an LBP-ELISA kit, which detects binding of biotinylated LPS to LBP. PMB, which competes with LBP for binding to LPS, was used as a positive control. A lipid-binding protein assay (Endoblock) was used to investigate whether Fh12 disrupts the interaction between LPS and LBP. Polymyxin-B (100 μM), which is known to compete with LBP for binding to LPS, blocked LBP/LPS binding.
substance,measurement,setting,value
polymyxin-B [PMB],"NF-κB expression, antagonist control",[1],completely suppressed
same,"LBP/LPS binding, positive control",[2],blocked
